Activity calls are given as the source filed them. The rule behind the calls is not given here.

In one series the test system is Calu-1. Description: Antiproliferative activity against human Calu-1 cells assessed as inhibition of cell growth incubated for 24 hrs by MTT assay. The class given is functional, cell-based. Particulars: Calu-1, 24 h. Background: Tetrazolium dyes change colour on reduction, which living cells bring about.
The target in series [1] is T1, Phospholipid hydroperoxide glutathione peroxidase GPX4 (Homo sapiens) (UniProt P36969).
T1 sequence (whole entry): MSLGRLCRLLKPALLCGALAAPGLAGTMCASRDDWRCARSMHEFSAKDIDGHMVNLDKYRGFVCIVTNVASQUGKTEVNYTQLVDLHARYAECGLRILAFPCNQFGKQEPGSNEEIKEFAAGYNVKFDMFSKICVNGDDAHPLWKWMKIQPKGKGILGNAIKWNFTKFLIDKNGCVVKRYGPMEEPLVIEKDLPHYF
The experiment in a line: Induction of GPX4 degradation in human HT-1080 cells at 100 nM incubated for 6 hrs relative to control. It counts as cell-based.

In series [2] the target is T1, Phospholipid hydroperoxide glutathione peroxidase GPX4 (Homo sapiens). Description: (§1) Induction of GPX4 degradation in human HT-1080 cells measured for 6 hrs by Western blot analysis. The class given is cell-based. The note with it: dose 0.3-1000 nM. (In general: In western blotting, separated proteins are transferred to a membrane and probed.)
In series [3] the target is T2, Phospholipid hydroperoxide glutathione peroxidase GPX4 (Homo sapiens, UniProt P36969).
T2 sequence (P36969 whole entry): T1 sequence (whole entry)
The series is described as §1. The class given is cell-based.

In series [4] the target is T1, Phospholipid hydroperoxide glutathione peroxidase GPX4 (Homo sapiens). Description: (§2) Induction of GPX4 degradation in human Calu-1 cells measured for 24 hrs by Western blot analysis. It counts as cell-based. Particulars: dose 0.1-10000 nM.
The target in series [5] is T2, Phospholipid hydroperoxide glutathione peroxidase GPX4. The series is described as §2. It counts as cell-based.
For series [6], the target named is T1, Phospholipid hydroperoxide glutathione peroxidase GPX4 (Homo sapiens). The experiment in a line: Induction of GPX4 degradation in human HT-1080 cells at 0.1 uM measured for 1 hr by Western blot analysis. The class given is cell-based.
For series [7] the target is unchanged. Description: Induction of GPX4 degradation in human HT-1080 cells at 0.1 uM measured for 6 hrs by Western blot analysis. It counts as cell-based.
Series [8] shares this target. The experiment in a line: Induction of GPX4 degradation in human HT-1080 cells at 0.1 uM measured for 24 hrs by Western blot analysis. It counts as cell-based.
For series [9] the target is unchanged. Description: Induction of GPX4 degradation in human Calu-1 cells at 0.3 uM measured for 4 hrs by Western blot analysis. The class given is cell-based.
The target is the same in series [10]. Description: Induction of GPX4 degradation in human Calu-1 cells at 0.3 uM measured for 8 hrs by Western blot analysis. The class given is cell-based.
Series [11] relates to HT-1080. The experiment in a line: Antiproliferative activity against human HT-1080 cells assessed as inhibition of cell growth incubated for 24 hrs by MTT assay. It counts as functional, cell-based. The note with it: HT-1080, 24 h.
In series [12] the target is T1, Phospholipid hydroperoxide glutathione peroxidase GPX4 (Homo sapiens). Description: (§3) Induction of GPX4 degradation in human NCI-H1650 cells incubated for 24 hrs by Western blot analysis. The class given is cell-based. Particulars: dose 10-1000 nM.
For series [13], the target named is T2, Phospholipid hydroperoxide glutathione peroxidase GPX4. The description is as §3. The class given is cell-based.
The target in series [14] is T1, Phospholipid hydroperoxide glutathione peroxidase GPX4 (Homo sapiens). The experiment in a line: Induction of GPX4 degradation in human NCI-H1650 cells at 0.3 uM incubated for 24 hrs by Western blot analysis. The class given is cell-based.
In a further series the test system is NCI-H1650. The experiment in a line: Antiproliferative activity against human NCI-H1650 cells assessed as inhibition of cell growth incubated for 24 hrs by MTT assay. The note with it: NCI-H1650, 24 h. It counts as functional, cell-based.
A short description of series [15]: Antiproliferative activity against human Gefitinib-resistant H1650 cell assessed as inhibition of cell growth incubated for 24 hrs by MTT assay. The class given is functional, cell-based.
Series [16] concerns the target T1, Phospholipid hydroperoxide glutathione peroxidase GPX4 (Homo sapiens). The experiment in a line: (§4) Induction of GPX4 degradation in human Gefitinib-resistant H1650 cells incubated for 24 hrs by Western blot analysis. The class given is cell-based. The note with it: Gefitinib-resistant H1650 cell, dose 10-1000 nM.
In series [17] the target is T2, Phospholipid hydroperoxide glutathione peroxidase GPX4. The description is as §4. The class given is cell-based, Gefitinib-resistant H1650 cell.
The target of series [18] is T1, Phospholipid hydroperoxide glutathione peroxidase GPX4 (Homo sapiens). The experiment in a line: Induction of GPX4 degradation in human HT-1080 cells at 0.1 uM by Western blot analysis. It counts as cell-based.
Series [19] has the same target. The experiment in a line: Induction of GPX4 degradation in human HT-1080 cells at 0.1 uM pretreated for 2 hrs followed by V5 addition and measured after 6 hrs by Western blot analysis. The class given is cell-based. Particulars: time 8.0 hrs.
Series [20] shares this target. Description: Induction of GPX4 degradation in human HT-1080 cells at 0.1 uM incubated for 6 hrs in presence of […] by Western blot analysis. The class given is cell-based.
The target is the same in series [21]. The experiment in a line: Induction of GPX4 degradation in human HT-1080 cells at 0.1 uM incubated for 6 hrs in presence of PYR41 by Western blot analysis. The class given is cell-based.
For series [22] the target is unchanged. Description: Induction of GPX4 degradation in human HT-1080 cells at 0.1 uM incubated for 24 hrs in presence of Baf-A1 by Western blot analysis. The class given is cell-based.
For series [23] the target is unchanged. The experiment in a line: Induction of GPX4 degradation in human HT-1080 cells at 0.1 uM incubated for 24 hrs in presence of Nec-1 by Western blot analysis. It counts as cell-based.
For series [24] the target is unchanged. Description: Induction of GPX4 degradation in human HT-1080 cells at 0.1 uM incubated for 24 hrs in presence of ZVF by Western blot analysis. It counts as cell-based.
Series [25] concerns HT-1080. The experiment in a line: Induction of ferroptosis in human HT-1080 cells assessed as increase in cell survival at 0.1 uM incubated for 24 hrs in presence of 0.006 uM of liproxstatin-1 by MTT assay. The class given is functional.
Series [26] deals with HT-1080. The experiment in a line: Induction of ferroptosis in human HT-1080 cells assessed as increase in cell survival at 0.1 uM incubated for 24 hrs in presence of 0.020 uM of liproxstatin-1 by MTT assay. It counts as functional.
In series [27] the test system is HT-1080. The experiment in a line: Induction of ferroptosis in human HT-1080 cells assessed as increase in cell survival at 0.1 uM incubated for 24 hrs in presence of 0.061 uM of liproxstatin-1 by MTT assay. It counts as functional.
Series [28] deals with HT-1080. Description: Induction of ferroptosis in human HT-1080 cells assessed as increase in cell survival at 0.1 uM incubated for 24 hrs in presence of 0.185 uM of liproxstatin-1 by MTT assay. It counts as functional.
The test system of series [29] is HT-1080. Description: Induction of ferroptosis in human HT-1080 cells assessed as increase in cell survival at 0.1 uM incubated for 24 hrs in presence of 0.556 uM of liproxstatin-1 by MTT assay. The class given is functional.
Series [30] has as its system HT-1080. The experiment in a line: Induction of ferroptosis in human HT-1080 cells assessed as increase in cell survival at 0.1 uM incubated for 24 hrs in presence of 1.670 uM of liproxstatin-1 by MTT assay. The class given is functional.
For series [31], the system named is HT-1080. The experiment in a line: Induction of ferroptosis in human HT-1080 cells assessed as increase in cell survival at 0.1 uM incubated for 24 hrs in presence of 5 uM of liproxstatin-1 by MTT assay. The class given is functional.
Series [32] relates to HT-1080. The experiment in a line: Induction of ROS production in human HT-1080 cells assessed as increase in ROS positive cells at 0.1 uM incubated for 4 hrs by C11-BODIPY581/891 staining based flow cytometry analysis. The class given is functional, cell-based. In general terms: A flow cytometer gives signals particle by particle.
The test system of series [33] is HT-1080. The experiment in a line: Induction of ROS production in human HT-1080 cells assessed as increase in ROS positive cells at 0.1 uM preincubated with liproxstatin-1 for 2 hrs followed by compound addition and measured after for 7 hrs by C11-BODIPY581/891 staining based flow cytometry analysis. The class given is functional, cell-based.
Series [34] has as its target T1, Phospholipid hydroperoxide glutathione peroxidase GPX4 (Homo sapiens). The experiment in a line: Induction of GPX4 degradation in human HT-1080 cells at 0.1 uM incubated for 24 hrs in presence of 20 uM of liproxstatin-1 by Western blot analysis. It counts as cell-based.
The nature of series [35]: Toxicity in Balb/c nude mouse xenografted with human HT-1080 cells assessed as change in body weight at 200 mg/kg, sc measured for 16 days. Particulars: in vivo, 384 h, time 16 day. It counts as organism-based.

With `Cc1onc(C(=O)N2CCN(C(c3ccc(Cl)cc3)c3ccc(Cl)cc3)CC2)c1[N+](=O)[O-]`, in the series on Calu-1, the IC50 (usually the concentration that gives 50% inhibition) was found to be 630 nM.
For `COC(=O)[C@H]1Cc2c([nH]c3ccccc23)[C@H](c2ccc(C(=O)N3CCN(CCCCCCCCCCCCCCN[C@H](C(=O)N4C[C@H](O)C[C@H]4C(=O)N[C@@H](C)c4ccc(-c5scnc5C)cc4)C(C)(C)C)CC3)cc2)N1C(=O)CCl`, the Activity in series [1] was found to be 55%.
Regarding `COC(=O)[C@H]1Cc2c([nH]c3ccccc23)[C@H](c2ccc(C(=O)N3CCN(CCCCCCCCCCCCCN[C@H](C(=O)N4C[C@H](O)C[C@H]4C(=O)N[C@@H](C)c4ccc(-c5scnc5C)cc4)C(C)(C)C)CC3)cc2)N1C(=O)CCl`, the Activity was 63% in [1]; “Dose-Dependent Effect” in [2]; “Dose-Dependent Effect” in series [4]; 100% in series [7]; 100% in series [10]; “Dose-Dependent Effect” in [12]. In addition, the Activity in series [14] was 100%; in series [16] it was “Dose-Dependent Effect”; in the series on HT-1080 [25] it was 74.8%; with HT-1080 [26] it was 82.7%; in the series with HT-1080 [27] it was 82.7%; in the series on HT-1080 [28], 92.5%. For the same compound, the Activity is given as 91.5% in the series with HT-1080 [29], 88.5% in the series on HT-1080 [30], 92.1% in the series on HT-1080 [31] and “Non-Toxic” in [35]. In addition, the EC50 (commonly the concentration giving half of the maximal effect) stood at 23.3 nM in [3], 136 nM in series [5], 42.7 nM in series [13] and 25.6 nM in [17]. Besides, the result (in [6]; in [8]; in series [9]; in [18]; in the series on HT-1080 [32]; in the series on HT-1080 [33]) was Active. For the same compound, in series [34], the result was Active. For the same compound, the IC50 was determined as 58 nM in the series with HT-1080 [11], 25 nM with Calu-1, 2100 nM in the series with NCI-H1650 and 1560 nM in series [15]. Besides, the outcome in [19], in [20], in series [21], in series [22], in series [23] and in [24] was inactive.
On to `COC(=O)[C@H]1Cc2c([nH]c3ccccc23)[C@H](c2ccc(C(=O)N3CCN(CCCCCCCCCN[C@H](C(=O)N4C[C@H](O)C[C@H]4C(=O)N[C@@H](C)c4ccc(-c5scnc5C)cc4)C(C)(C)C)CC3)cc2)N1C(=O)CCl`, for which the Activity in [1] turned out to be 39%.
`COC(=O)[C@H]1Cc2c([nH]c3ccccc23)[C@H](c2ccc(C(=O)N3CCN(CCCCCCCCCCCCN[C@H](C(=O)N4C[C@H](O)C[C@H]4C(=O)N[C@@H](C)c4ccc(-c5scnc5C)cc4)C(C)(C)C)CC3)cc2)N1C(=O)CCl` came in with an Activity in series [1] of 60%.
On the same count and under the same terms, then `COC(=O)[C@H]1Cc2c([nH]c3ccccc23)[C@H](c2ccc(C(=O)N3CCN(CCCCCCCCCCCN[C@H](C(=O)N4C[C@H](O)C[C@H]4C(=O)N[C@@H](C)c4ccc(-c5scnc5C)cc4)C(C)(C)C)CC3)cc2)N1C(=O)CCl`, with 52%.
In the case of `COC(=O)[C@H]1Cc2c([nH]c3ccccc23)[C@H](c2ccc(C(=O)N3CCN(CCCCCCCN[C@H](C(=O)N4C[C@H](O)C[C@H]4C(=O)N[C@@H](C)c4ccc(-c5scnc5C)cc4)C(C)(C)C)CC3)cc2)N1C(=O)CCl`, in [1], the Activity is 36%.
`COC(=O)c1ccc([C@H]2c3[nH]c4ccccc4c3C[C@H](C(=O)OC)N2C(=O)CCl)cc1`: the IC50 in the series on HT-1080 [11] worked out at 130 nM; in the series with Calu-1 it was 50 nM; with NCI-H1650, 7750 nM; in series [15] it was 5520 nM. Besides, the result in [18] was Active. Also, the result in series [20], in series [21] and in series [34] was inactive.

Values taken from ChEMBL document CHEMBL5344412, “Dual degradation mechanism of GPX4 degrader in induction of ferroptosis exerting anti-resistant tumor effect” (Eur J Med Chem, 2023).
